Assay results reported in patent US10011573B2, “Human androgen receptor DNA-binding domain (DBD) compounds as therapeutics and methods for their use” (The University of British Columbia, priority 2014, dated 2018).
Where two headings read alike, the source gives them in different places.

Experiments:
PSA = assay: Prostate-specific antigen (PSA) assay, secreted PSA from the eGFP assay plates; type: cell-based, human; conditions: Homo sapiens
Method: 3. Prostate-specific antigen (PSA) assay: The evaluation of PSA levels secreted into the media was performed in parallel to the eGFP assay using the same plates. After cells were incubated for 3 days, 150 μl of the media was taken from each well, and added to 150 μl of PBS.

androgen receptor (AR) = biological target: T1, androgen receptor (AR) (Homo sapiens, UniProt P10275, T878A); assay: eGFP cellular AR transcription assay (LNCaP eGFP cells, LN-ARR2PB-eGFP); conditions: for inhibition at 3 µM: LNCaP, read-out: % Inhibition (3 μM)
T1 sequence (P10275 1-920 T878A): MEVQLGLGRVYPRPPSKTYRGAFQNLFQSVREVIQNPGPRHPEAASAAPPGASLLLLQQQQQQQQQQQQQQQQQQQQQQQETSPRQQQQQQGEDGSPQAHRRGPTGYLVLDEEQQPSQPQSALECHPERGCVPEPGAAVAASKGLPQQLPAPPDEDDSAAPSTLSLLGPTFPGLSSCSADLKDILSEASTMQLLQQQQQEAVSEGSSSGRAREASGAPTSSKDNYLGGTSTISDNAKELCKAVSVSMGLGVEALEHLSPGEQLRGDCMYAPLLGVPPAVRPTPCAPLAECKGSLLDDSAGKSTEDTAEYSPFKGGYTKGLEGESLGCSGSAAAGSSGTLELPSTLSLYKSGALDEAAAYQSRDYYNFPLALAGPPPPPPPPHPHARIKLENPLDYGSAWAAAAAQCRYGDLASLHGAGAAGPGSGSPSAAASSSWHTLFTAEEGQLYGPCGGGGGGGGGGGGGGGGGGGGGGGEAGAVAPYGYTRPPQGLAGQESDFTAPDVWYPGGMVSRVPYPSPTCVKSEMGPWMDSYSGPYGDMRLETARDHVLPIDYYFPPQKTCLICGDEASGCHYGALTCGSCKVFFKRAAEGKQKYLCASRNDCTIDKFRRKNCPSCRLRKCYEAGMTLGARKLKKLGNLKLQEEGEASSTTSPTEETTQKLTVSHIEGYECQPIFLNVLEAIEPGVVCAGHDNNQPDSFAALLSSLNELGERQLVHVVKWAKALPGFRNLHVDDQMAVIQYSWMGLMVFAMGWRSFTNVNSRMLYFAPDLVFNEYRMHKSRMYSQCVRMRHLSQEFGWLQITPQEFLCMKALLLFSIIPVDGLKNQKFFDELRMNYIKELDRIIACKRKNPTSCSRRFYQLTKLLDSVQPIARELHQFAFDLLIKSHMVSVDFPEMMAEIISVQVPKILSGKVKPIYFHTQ

[1] = eGFP IC50 (μM), LNCaP eGFP cells

| inhibition at 3 µM (androgen receptor (AR)) [%] | Structure (SMILES) | % Inhibition (3 μM) (androgen receptor (AR)) [%] | also measured |
| --- | --- | --- | --- |
|  | Clc1c(Br)ncn1-c1csc(N2CCOCC2)n1 [Compound 14450, 4-(4-(4-bromo-5-chloro-1H-imidazol-1-yl)thiazol-2-yl)morpholine] |  | IC50 (PSA; Series 1): 1.28 µM; IC50 (androgen receptor (AR); eGFP IC50 (μM), Series 1): 1.3 µM |
| 55.5 | CCC1CN(c2nc3ccccc3s2)CCO1 (stereo not shown) [Compound 14392] |  | IC50 (PSA; secreted PSA): 10.4 µM; IC50 (androgen receptor (AR); [1]): 7.07 µM |
|  | Cc1sc(N2CCOCC2)nc1-c1ccc(F)cc1 [Compound 14341] | 43.7 |  |
|  | O=C1C(Cl)=C(N2CCOCC2)C(=O)N1c1ccccc1 [Compound 14476] | 9.79 |  |
|  | COc1ccc(-c2nc(-c3ccccc3)cs2)cc1 [Compound 14419] | 119.36 | IC50 (androgen receptor (AR); read-out: eGFP IC50): 6.11 µM |
| 99.6 | C/C(=N/O)c1ccc2c(C)ccc3c2c1CC3 [Compound 14171] |  | IC50 (androgen receptor (AR); [1]): 3.38 µM |
|  | OCc1sc(N2CCOCC2)nc1-c1ccccc1 [Compound 14274] | 5.04 |  |
| 14.5 | NC(=O)c1ccc(-c2ccc3ccccc3n2)cc1 [Compound 14389] |  |  |
| 17.3 | O=c1[nH]c(N2CCOCC2)cc2ccccc12 [Compound 14453] |  |  |
|  | Clc1ccccc1-c1csc(N2CCOCC2)n1 [Compound 14437] | 45.04 |  |
| 86.8 | NC(=S)N/N=C/c1cccc2ccccc12 [Compound 14164] |  | IC50 (androgen receptor (AR); [1]): 3.04 µM |
| 8.65 | Oc1ccc(-c2ccc3ccccc3n2)cc1 [Compound 14440] |  | IC50 (androgen receptor (AR); [1]): 9.48 µM |
|  | c1ccc2cc(-n3ccnc3)ccc2c1 [Compound 14018] |  | IC50 (androgen receptor (AR); [1]): 13.9 µM |
|  | CS(=O)(=O)Nc1ccc(-c2csc(N3CCOCC3)n2)cc1 [Compound 14276] | 25.98 |  |
|  | CC1CN(c2nc(-c3ccc(Cl)cc3)cs2)C(C)CO1 (stereo not shown) [Compound 14248] | 4.73 |  |
|  | COc1ccc(-c2csc(N3CCOCC3)n2)cc1 [Compound 14249] | 45.16 |  |

| inhibition at 3 µM (androgen receptor (AR)) [%] | Structure (SMILES) | % Inhibition (3 μM) (androgen receptor (AR)) [%] | also measured |
| --- | --- | --- | --- |
| 125 | Oc1ccc(-c2csc(-c3ccccc3)n2)cc1 [Compound 14420] |  | IC50 (androgen receptor (AR); eGFP IC50 (μM), Series 1): 3.73 µM |
|  | COc1c(F)cc(O)cc1-c1csc(N2CCOCC2)n1 [Compound 14467] |  | IC50 (androgen receptor (AR); eGFP IC50 (μM), Series 1): 3.7 µM |
| 31.2 | c1ccc2sc(N3CCOCC3)nc2c1 [Compound 14393] |  | IC50 (androgen receptor (AR); [1]): 46.6 µM |
| 27 | CC1CN(c2cnc3ccccc3n2)CC(C)O1 (stereo not shown) [Compound 14487] |  |  |
|  | CNc1cc(F)c(OC)c(-c2csc(N3CCOCC3)n2)c1 [Compound 14465] |  | IC50 (androgen receptor (AR); eGFP IC50 (μM), Series 1): 3.06 µM |
|  | COc1ccc(-c2csc(N3CCOCC3)n2)cc1OC [Compound 14252] | 26.03 |  |
| 131 | CC(=O)c1ccc(-c2ccccc2)s1 [Compound 14422] |  | IC50 (androgen receptor (AR); eGFP IC50 (μM), Series 1): 2.26 µM |
|  | Oc1ccc(-c2csc(N3CCOCC3)n2)cc1O [Compound 14267] | 19.95 |  |
| 3.37 | O=[N+]([O-])c1ccc(-c2csc(N3CCOCC3)n2)cc1 [Compound 14254] |  | IC50 (androgen receptor (AR); eGFP IC50 (μM), Series 1): 15.8 µM |
|  | COc1cc(C)c2occ(/C(C)=N/O)c2c1 [Compound 14017] |  | IC50 (androgen receptor (AR); [1]): 41.6 µM |
| 106 | CC(C)Oc1c(F)cccc1-c1csc(N2CCOCC2)n1 [Compound 14430] |  | IC50 (androgen receptor (AR); eGFP IC50 (μM), Series 1): 5.27 µM |
|  | c1ccc2oc(-c3csc(N4CCOCC4)n3)cc2c1 [Compound 14136] | 40.98 |  |
|  | Cc1cccn1-c1csc(N2CCOCC2)n1 [Compound 14410] |  | IC50 (androgen receptor (AR); eGFP IC50 (μM), Series 1): 28.4 µM |
|  | N#Cc1cc2ccccc2nc1N1CCOCC1 [Compound 14433] |  | IC50 (androgen receptor (AR); [1]): 1.95 µM |
| 33 | c1sc(N2CCOCC2)nc1C1CCCCC1 [Compound 14406] |  | anti-AR activity (AR transcriptional inhibition) in words (androgen receptor (AR); LNCaP (T877A AR)): lost their anti-AR activity; eGFP IC50 (androgen receptor (AR); LNCaP eGFP cells, 0.1 nM R1881): Low activity |
|  | CC1CN(c2nc(-c3ccc([N+](=O)[O-])cc3)cs2)C(C)CO1 (stereo not shown) [Compound 14247] | 3.73 |  |
